One series concerns the target T1, p38α/MK2 (Homo sapiens, UniProt P49137+Q16539).
T1 construct: purchased R & D systems (p38 alpha); Thermo (MK2) 5477-KS-010; PV3316
Nature of the series: Inhibition of p38α/MK2 enzyme activity (TR-FRET, ULight-CREBtide). The format is biochemical. The note with it: for IC50: 0.06 nM p38a, 1.2 nM MK2, 25 μM ATP, read-out: p38/MK2 IC50; for Selectivity ratio (p38 IC50 / p38/MK2 IC50): selectivity ratio p38 IC50 over p38/MK2 IC50. The procedure: (§1) 50 nM ULight-CREBtide and 25 μM ATP (ATP Solution) were added, and the mixture was reacted at room temperature for 1.5 hours. An equal volume of a detection and termination mixed solution (1×LANCE detection buffer containing 20 mM EDTA and 2 nM Europium-anti-phospho-CREB) was added, the mixture was mixed until uniform and centrifuged, a plate sealing film was attached, and a reaction was performed at room temperature for 1 hour. TR-FRET program of the EnVision instrument was used to read the plate, and the fluorescence value of each well was detected at 665 nm/615 nm.
(§2) Calculation was performed on the raw data (665 nm/615 nm reading ratio) according to the following formula to obtain the inhibition rate. Inhibition rate %=[(mean value in positive control well−value in sample well)/(mean value in positive control well−mean value in negative control well)]×100, wherein the positive control well was a reaction well without a compound […], and the negative control well was a reaction wells without an enzyme.
(§3) Log(inhibitor) vs. response−Variable slope (four parameters) in GraphPad Prism 6 was used for fitting equation analysis of the compound concentration and the corresponding inhibition rate, and the curve was fitted to obtain the IC50 value of the compound.
(§4) The fitting calculation equation was Y=Bottom+(Top−Bottom)/(1+10^((Log IC50−X)*HillSlope)).

Series [1] concerns the target T2, p38a (Active p38 alpha Protein) (Homo sapiens, UniProt Q16539).
T2 construct: purchased R & D systems 5477-KS-010
Kind of series: Inhibition of p38 enzyme activity (TR-FRET, ULight-MBP). The format is biochemical. The note with it: 3 nM p38a, 50 μM ATP. The procedure: as §1, with “Experimental method for determining the p38 enzyme activity: 3 nM p38a (Active p38 alpha Protein) and compounds diluted in a certain concentration gradient were incubated in 1× enzyme reaction buffer (50 mM HEPES pH 7.5, 1 mM EGTA, 10 mM MgCl2, 2 mM DTT, 0.01% Tween-20) for 1 hour. 50” for “50”, “ULight-MBP” for “ULight-CREBtide”, “50” for “25”, “(ATP 10 mM” for “(ATP”, “Europium-anti-P-MBP)” for “Europium-anti-phospho-CREB)”
as §2, §3, §4

In the next series the test system is p-Hsp27 in U937 cells. Nature of the series: Inhibition of p-Hsp27 in LPS-stimulated U937 cells (ELISA). Type of series: cell-based. The settings on record: Homo sapiens, U-937; PMA-differentiated U937, 10 ng/ml LPS 0.5 hours; read-out: U937 cell activity test p-HSP27 IC50. Here is the method: U937 cells were treated with 20 ng/ml PMA for differentiation overnight, and after replacement with a fresh culture medium, the U937 cells were rested overnight. After differentiation, the U937 cell were digested and counted, and 25,000 cells per well were seeded in a 96-well plate until the cells adhered to the wall. A compound concentration gradient was prepared, the cells were pretreated with the compound for 1 hour (the highest final concentration of the compound was 1 μM, diluted in 3-fold concentration gradient), and 10 ng/ml LPS (Lipopolysaccharides from Escherichia coli O111:B4) was added for stimulation for 0.5 hours. After the cells were washed with PBS, the cells were lysed with a lysis solution. p-Hsp27 in the cell lysate was detected by using Phospho-HSP27 (S78/S82) DuoSet IC ELISA kit. For specific steps, reference could be made to the standard steps provided by the kit manufacturer.
Calculation of p-Hsp27 inhibition rate: Inhibition rate %=[(mean value of p-Hsp27 in positive control well−mean value of p-Hsp27 in sample well)/(mean value of p-Hsp27 in positive control well−mean value of p-Hsp27 in negative control well)]×100%, wherein the positive control well was a well without a compound (DMSO-treated well), and the negative control well was a well without LPS stimulation.
Dose response curve fitting: Log(inhibitor) vs. response−Variable slope (four parameters) in GraphPad Prism 6 was used for fitting equation analysis of the compound concentration and the corresponding inhibition rate, and the curve was fitted to obtain the IC50 value of the compound.
as §4
(In general: In an ELISA, binding on a coated surface is turned into a signal by an enzyme label.)

Another series deals with TNF-α in U937 cells. Nature of the series: Inhibition of the expression level of TNF-α in LPS-stimulated U937 cells (ELISA). The format is cell-based. The note with it: Homo sapiens, U-937; PMA-differentiated U937, 10 ng/ml LPS 4 hours; read-out: U937 cell activity test TNF-α IC50. The procedure: U937 cells were treated with 20 ng/ml PMA for differentiation overnight, and after replacement with a fresh culture medium, the U937 cells were rested overnight. After differentiation, the U937 cells were digested and counted, and 50,000 cells per well were seeded in a 96-well plate until the cells adhered to the wall. A compound concentration gradient was prepared, the cells were pretreated with the compound for 1 hour (the highest final concentration of the compound was 1 μM, diluted in 3-fold concentration gradient), and 10 ng/ml LPS (Lipopolysaccharides from Escherichia coli O111:B4) was added for stimulation for 4 hours. Thereafter, the culture supernatant was collected by centrifugation and used for subsequent ELISA to detect the concentration of TNF-α in the supernatant. The concentration of TNF-α was detected according to the standard steps provided by the ELISA kit manufacturer.
A standard curve was plotted by a linear regression method from a TNF-α standard, and the concentration of TNF-α in a sample was derived by conversion according to the standard curve.
Calculation of inhibition rate: Inhibition rate %=[(mean value of TNF-α concentration in positive control well−mean value of TNF-α concentration in sample well)/(mean value of TNF-α concentration in positive control well−mean value of TNF-α concentration in negative control well)]×100%, wherein the positive control well was a well without a compound (DMSO-treated well), and the negative control well was a culture medium well.
Dose response curve fitting: Log(inhibitor) vs. response−Variable slope (four parameters) in GraphPad Prism 6 was used for fitting equation analysis of the compound concentration and the corresponding inhibition rate, and the curve was fitted to obtain the IC50 value of the compound. The fitting calculation equation was Y=Bottom+(Top−Bottom)/(1+10^((Log IC50−X)*HillSlope)).

Series [2] in a line: Pharmacokinetic assay in SD rats (PO administration). Type of series: in vivo. The note with it: male, Sprague-Dawley (SD), rat, plasma; for AUC(0-inf): read-out: Area under the curve AUC0-∞; for half-life: read-out: Half-life t1/2 (converted); for MRT: read-out: Mean residence time MRT; for Cmax: read-out: Plasma concentration Cmax; for Tmax: read-out: Time to peak tmax. The procedure: SD rats were used as test animals to study the pharmacokinetic behavior of the compounds of the present invention in the rat body (plasma) after oral administration at a dose of 5 mg/kg or 2 mg/kg and intravenous administration at a dose of 1 mg/kg.
3 SD rats/group, male, from Shanghai Jiesijie Experimental Animal Co., Ltd., animal production license number (SCXK (Shanghai) 2013-0006 N0.311620400001794).
PO, 10% solutol HS15 was dissolved by ultrasound and prepared into a clear solution or homogeneous suspension.
3 SD rats/group, male; After fasting overnight, the rats were administered p.o. at a dose of 5 mg/kg or 2 mg/kg with a dosage volume of 10 mL/kg and i.v. at a dose 1 mg/kg with a dosage volume of 5 mL/kg, respectively.
At 0.25, 0.5, 1, 2, 4, 6, 8, and 24 h after oral administration in the rats and at 0.083, 0.25, 0.5, 1, 2, 4, 6, 8, and 24 h after intravenous administration in the rats, 0.2 mL of blood was collected from the jugular vein, placed in an EDTA-K2 test tube, centrifuged at 4° C. at 6000 rpm for 6 min to separate plasma, which was stored at −80° C.
• 1) 100 μL of acetonitrile was added to 20 μL of plasma sample for pelleting, and it was mixed and centrifuged at 3500×g for 5-20 min. • 2) The treated supernatant solution was taken and subjected to LC/MS/MS to analyze the concentrations of the test compounds. LC/MS/MS analysis instrument: AB Sciex API 4000 Qtrap.
• Liquid phase conditions: Shimadzu LC-20AD pump • Chromatographic column: Waters Xbridge C18 5 μm, 4.6×50 mm, mobile phase: liquid A was 0.1% aqueous formic acid solution, and liquid B was methanol • Flow rate: 1.0 mL/min • Elution time: 0-4.0 min, the eluent was as follows:
The main pharmacokinetic parameters were calculated using WinNonlin 6.1.

Like-named read-outs stand apart in the source and are kept apart here.

T2 sequence (Q16539 whole entry): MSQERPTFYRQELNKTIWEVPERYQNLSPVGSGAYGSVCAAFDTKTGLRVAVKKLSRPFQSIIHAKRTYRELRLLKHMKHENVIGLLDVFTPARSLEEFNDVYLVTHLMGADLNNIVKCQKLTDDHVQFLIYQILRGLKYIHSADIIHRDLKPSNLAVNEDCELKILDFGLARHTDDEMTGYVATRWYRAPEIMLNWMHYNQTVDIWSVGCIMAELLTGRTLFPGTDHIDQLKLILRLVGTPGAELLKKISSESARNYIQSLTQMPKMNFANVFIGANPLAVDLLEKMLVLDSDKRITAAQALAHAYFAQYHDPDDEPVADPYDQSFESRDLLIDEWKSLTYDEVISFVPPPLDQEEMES
T1 sequence (Q16539 whole entry): as above
T1 sequence (P49137 whole entry): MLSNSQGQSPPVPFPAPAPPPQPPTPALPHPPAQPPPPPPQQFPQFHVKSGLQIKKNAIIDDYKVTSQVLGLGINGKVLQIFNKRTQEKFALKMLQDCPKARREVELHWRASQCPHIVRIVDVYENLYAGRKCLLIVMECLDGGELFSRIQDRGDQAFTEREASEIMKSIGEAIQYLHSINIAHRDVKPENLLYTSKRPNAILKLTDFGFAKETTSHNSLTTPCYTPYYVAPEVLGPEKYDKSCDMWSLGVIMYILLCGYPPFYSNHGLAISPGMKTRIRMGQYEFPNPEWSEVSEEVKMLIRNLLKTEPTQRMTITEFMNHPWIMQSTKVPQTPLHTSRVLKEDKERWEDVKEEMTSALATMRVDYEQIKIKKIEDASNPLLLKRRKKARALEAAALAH

As usually defined, the MRT is the average time that molecules of a dose stay in the body. As usually defined, the Tmax is the time from dosing to the highest level. On to `[2H]C([2H])(Oc1cc2n(c(=O)c1Cl)-c1c(cnc(-n3cc(F)c(C(C)(C)NC(C)=O)n3)c1F)CCCC2)c1ncc(F)cc1F` [Example 6-1, (R)—N-(2-(1-(11-chloro-10-((3,5-difluoropyridin-2-yl)methoxy-d2)-1-fluoro-12-carbonyl-6,7,8,12-tetrahydro-5H-dipyrido[1,2-a:3′,4′-g]azocin-2-yl)-4-fluoro-1H-pyrazol-3-yl)propan-2-yl)acetamide], for which, on p38α/MK2, the IC50 turned out to be 0.1 nM and the “Selectivity ratio (p38 IC50 / p38/MK2 IC50)” value was found to be 153. For the same molecule, the IC50 in series [1] stood at 15.3 nM. Moreover, the IC50 in the series with p-Hsp27 in U937 cells was 0.15 nM. Moreover, in the series on TNF-α in U937 cells, the IC50 was 0.16 nM. In series [2] (5 mg/kg), the AUC(0-inf) amounted to 14200 ng·h/mL, the half-life was 162 min, the MRT turned out to be 2.9 h and the Cmax was determined as 4180 ng/mL. The Tmax in series [2] (5 mg/kg) was determined as 1 h.

As for `[2H]C([2H])(Oc1cc2n(c(=O)c1Cl)-c1c(cnc(-c3ccnc(C(C)(C)NC(C)=O)n3)c1F)CCCC2)c1ncc(F)cc1F` [Example 7-1, (R)—N-(2-(4-(11-chloro-10-((3,5-difluoropyridin-2-yl)methoxy-d2)-1-fluoro-12-carbonyl-6,7,8,12-tetrahydro-5H-dipyrido[1,2-a:3,4′-g]azocin-2-yl)pyrimidin-2-yl)propan-2-yl)acetamide], at p38α/MK2, the IC50 is 0.34 nM and the “Selectivity ratio (p38 IC50 / p38/MK2 IC50)” value is 144. In addition, the IC50 in series [1] was 49.1 nM. Besides, the IC50 with p-Hsp27 in U937 cells was found to be 0.35 nM. Further, the IC50 with TNF-α in U937 cells is 0.34 nM. In series [2] (2 mg/kg), the AUC(0-inf) was found to be 7350 ng·h/mL, the half-life is 84 min, the mean residence time (MRT) is 2.5 h and the Cmax is 2160 ng/mL. For the same molecule, the time to peak (Tmax) in series [2] (2 mg/kg) came to 1 h.

For `[2H]C([2H])(Oc1cc(C)n(-c2cc(-n3cccc(C(C)(C)NC(C)=O)c3=O)ncc2C)c(=O)c1Cl)c1ccc(F)cc1F` [Example 13-1, (S)—N-(2-(3″-chloro-4″-((2,4-difluorophenyl)methoxy-d2)-5′,6″-dimethyl-2,2″-dicarbonyl-2H,2″H-[1,2′:4′,1″-terpyridin]-3-yl)propan-2-yl)acetamide], the IC50 came to 0.12 nM at p38α/MK2, 16.5 nM in series [1], 0.56 nM in the series with p-Hsp27 in U937 cells and 0.51 nM with TNF-α in U937 cells. In addition, the “Selectivity ratio (p38 IC50 / p38/MK2 IC50)” value on p38α/MK2 is 138.

Consider `[2H]C([2H])(Oc1cc(C)n(-c2cc(-n3cccc(C(C)(C)O)c3=O)ncc2C)c(=O)c1Cl)c1ccc(F)cc1F` [Example 14-1, (S)-3″-chloro-4″-((2,4-difluorophenyl)methoxy-d2)-3-(2-hydroxypropan-2-yl)-5′,6″-dimethyl-2H,2″H-[1,2′:4′,1″-terpyridine]-2,2″-dione], for which the IC50 at p38α/MK2 is 0.05 nM; in series [1] it was 5.1 nM; in the series with p-Hsp27 in U937 cells, 0.13 nM; in the series on TNF-α in U937 cells it was 0.12 nM. Moreover, the “Selectivity ratio (p38 IC50 / p38/MK2 IC50)” value on p38α/MK2 worked out at 102.

`[2H]C([2H])(Oc1cc2n(c(=O)c1Cl)-c1cc(-n3cccc(C(C)(C)O)c3=O)ncc1CCCC2)c1ncc(F)cc1F` [Example 15-1, (S)-11-chloro-10-((3,5-difluoropyridin-2-yl)methoxy-d2)-2-(3-(2-hydroxypropan-2-yl)-2-carbonylpyridin-1(2H)-yl)-5,6,7,8-tetrahydro-12H-dipyrido[1,2-a:3′,4′-g]azocin-12-one]: the IC50 on p38α/MK2 stood at 0.2 nM; in series [1] it was 53.6 nM; in the series with p-Hsp27 in U937 cells, 0.32 nM; in the series with TNF-α in U937 cells it was 0.18 nM. Further, the “Selectivity ratio (p38 IC50 / p38/MK2 IC50)” value at p38α/MK2 is given as 268.

The values above are taken from patent publication US20250066360A1, “PYRIDINE-CONTAINING POLYCYCLIC DERIVATIVE, AND PREPARATION METHOD THEREFOR AND USE THEREOF” (SHANGHAI HANSOH BIOMEDICAL CO., LTD., priority 2022, published 2025).
